From patent publication US8603227B2, “Composition for prevention of influenza viral infection comprising tannic acid, air filter comprising the same and air cleaning device comprising the filter” (Woongjin Coway Co., Ltd., priority 2009, dated 2013)

How the values were obtained:
Assay type in all cases: cell-based, influenza A virus subtype H1N1
[1] = tested on: new influenza A (H1N1) (A/California/O4/09); assay: Plaque assay of tannic acid against new influenza A (H1N1) A/California/O4/09 on MDCK cells
Description: (§1) Tannic acid was assayed for inhibitory activity against influenza virus as follows.
(§2) As influenza virus strains to be tested, influenza A subtype H1N1 viruses A/PR/8 (H1N1) and A/WSN (H1N1) as well as the WHO standard strain influenza A (H1N1) (A/California/O4/09), which was responsible for the declaration of the 2009 pandemic, were used.
(§3) Tannic acid was used as a sample in the following procedure.
(§4) The MDCK (Mardine Darbine Canine Kidney) cell line was inoculated at a density of 1.5×10^6 cells/mL into 6-well plates which were then incubated at 37° C. for 24 his in a 5% CO2 atmosphere. Separately, tannic acid was diluted to 100 mg/ml (1×) in an injection solution. The dilution was subjected to serial 10-fold dilutions. The specimens thus obtained were added in an amount of 90 μL per well to 96-well plates. 10 uL of an influenza virus sample was added to each well, incubated for 10 min, and 10-fold diluted with PBS. The MDCK cell line which had grown to confluence on the plates was infected with 1 mL of the dilution and incubated for 1 hr. For an “infection+non-administration” control, the MDCK cell line was infected with influenza virus which had not been treated with tannic acid.
(§5) Thereafter, the medium was removed, and a mixture of 1:1 2× agarose:2×MEM containing 10 μg/ml trypsin was added in an amount of 2 mL per well. […]

[2] = tested on: influenza A/PR/8 (H1N1); assay: Plaque assay of tannic acid against influenza A/PR/8 (H1N1) on MDCK cells
Description: as §1, §2, §3, §4, §5

[3] = tested on: influenza A/WSN/33 (H1N1); assay: Plaque assay of tannic acid against influenza A/WSN/33 (H1N1) on MDCK cells
Description: as §1, §2, §3, §4, §5

[4] = (1-treated/control)x100, MDCK plaque count
[5] = virus incubated 10 min with tannic acid, MDCK plaque count

O=C(OC[C@H]1O[C@@H](OC(=O)c2cc(O)c(O)c(OC(=O)c3cc(O)c(O)c(O)c3)c2)[C@H](OC(=O)c2cc(O)c(O)c(OC(=O)c3cc(O)c(O)c(O)c3)c2)[C@@H](OC(=O)c2cc(O)c(O)c(OC(=O)c3cc(O)c(O)c(O)c3)c2)[C@@H]1OC(=O)c1cc(O)c(O)c(OC(=O)c2cc(O)c(O)c(O)c2)c1)c1cc(O)c(O)c(OC(=O)c2cc(O)c(O)c(O)c2)c1 [Tannic Acid, Tannic acid]
Not-detected: Virus Titer [1, 5] | Virus Titer [2, 5] | Virus Titer [3, 5]
99.99%: Inhibitory Activity [1, 4] | Inhibitory Activity [2, 4] | Inhibitory Activity [3, 4]
